Consider 19 compounds from ChEMBL document CHEMBL1157215, “Isolation and structural modification of 7-deoxynarciclasine and 7-deoxy-trans-dihydronarciclasine” (2006).

Holding throughout (assay type): functional
The test system of test [1] is P388. Nature of the test: Growth inhibition of mouse P388 cells. The conditions noted are these: for EC50: read-out: ED50 (the source's name).
Test [2] has as its system BXPC-3. Nature of the test: Growth inhibition of human BXPC3 cells.
Test [3] concerns MCF7. Kind of test: Growth inhibition of human MCF7 cells.
Test [4] can be described thus: Growth inhibition of human SF269 cells.
For test [5], the system named is NCI-H460. Nature of the test: Growth inhibition of human NCI-H460 cells.
For test [6], the system named is KM-20L2. Kind of test: Growth inhibition of human KM20L2 cells.
For test [7], the system named is DU-145. Kind of test: Growth inhibition of human DU145 cells.

≈ marks a conversion by molar mass, not a printed value. Some results are limits rather than exact numbers.

As for `CC1(C)O[C@@H]2[C@H](O1)[C@@H](O)C=C1c3cc4c(cc3CN[C@H]12)OCO4`, the GI50 in test [1] was more than 10 µg/mL.
The same measure, in the same setting: with `CC(=O)O[C@H]1C=C2c3cc4c(cc3C(=O)N[C@H]2[C@@H]2OC(C)(C)O[C@@H]21)OCO4` the figure was more than 10 µg/mL.
Same read-out and setting: with `CC1(C)O[C@H]2[C@@H]3NC(=O)c4cc5c(cc4[C@H]3C[C@H](O)[C@H]2O1)OCO5` the figure was more than 10 µg/mL.
Consider `CC(=O)O[C@H]1[C@@H]2NC(=O)c3cc4c(cc3[C@H]2C[C@H](OC(C)=O)[C@H]1OC(C)=O)OCO4`, for which, in test [2], the GI came to 0.69 µg/mL. In addition, the GI50 was determined as 0.46 µg/mL (≈ 1.1 µM) in test [3]; 0.3 µg/mL (≈ 0.715 µM) in test [4]; 1.5 µg/mL (≈ 3.58 µM) in test [5]; 0.66 µg/mL (≈ 1.57 µM) in test [6]; 0.46 µg/mL (≈ 1.1 µM) in test [7]. Besides, in test [1], the EC50 amounted to 1.61 µg/mL (≈ 3.84 µM).
Regarding `O=C1N[C@H]2[C@H](O)[C@H](O)[C@@H](O)[C@H](O)[C@@H]2c2cc3c(c(O)c21)OCO3` [PANCRATISTATIN], in test [2], the GI amounted to 0.028 µg/mL. The GI50 in test [3] came out at 0.032 µg/mL (≈ 0.0984 µM); in test [4], 0.017 µg/mL (≈ 0.0523 µM); in test [5], 0.048 µg/mL (≈ 0.148 µM); in test [6] it was 0.026 µg/mL (≈ 0.0799 µM); in test [7], 0.016 µg/mL (≈ 0.0492 µM). In addition, in test [1], the EC50 came out at 0.039 µg/mL (≈ 0.12 µM).
As for `Cl.O[C@@H]1[C@H](O)[C@@H](O)C=C2c3cc4c(cc3CN[C@H]21)OCO4`, the GI in test [2] was determined as 4.4 µg/mL. For the same compound, the GI50 in test [3] was 3.4 µg/mL; in test [4], 2.9 µg/mL; in test [5], 3.4 µg/mL; in test [6], more than 10 µg/mL; in test [7], 3.2 µg/mL. The EC50 in test [1] came out at 7.1 µg/mL.
On to `O=C1N[C@@H]2C(=C[C@H](O)[C@@H](O)[C@H]2O)c2cc3c(c(O)c21)OCO3` [NARCICLASINE], for which the GI in test [2] was determined as 0.026 µg/mL. Besides, the GI50 worked out at 0.019 µg/mL (≈ 0.0618 µM) in test [3]; 0.021 µg/mL (≈ 0.0683 µM) in test [4]; 0.032 µg/mL (≈ 0.104 µM) in test [5]; 0.21 µg/mL (≈ 0.683 µM) in test [6]; 0.011 µg/mL (≈ 0.0358 µM) in test [7]. Moreover, in test [1], the EC50 was 0.002 µg/mL (≈ 0.00651 µM).
As for `O=C1N[C@H]2[C@H](O)[C@H](O)[C@@H](O)C[C@@H]2c2cc3c(cc21)OCO3`, in test [2], the GI was determined as 0.036 µg/mL. For the same compound, the GI50 in test [3] was 0.03 µg/mL (≈ 0.102 µM); in test [4] it was 0.03 µg/mL (≈ 0.102 µM); in test [5], 0.037 µg/mL (≈ 0.126 µM); in test [6] it was 0.028 µg/mL (≈ 0.0955 µM); in test [7] it was 0.025 µg/mL (≈ 0.0852 µM). In test [1], the EC50 is less than 0.01 µg/mL.
In test [1], `CC1(C)O[C@H]2[C@@H]3NC(=O)c4cc5c(cc4[C@H]3C[C@H](O[Si](C)(C)C(C)(C)C)[C@H]2O1)OCO5` displayed a GI50 of more than 10 µg/mL.
Compound `O[C@@H]1[C@H](O)[C@@H](O)C[C@@H]2c3cc4c(cc3CN[C@@H]12)OCO4` registered a GI in test [2] of more than 10 µg/mL. Moreover, the GI50 was more than 10 µg/mL in test [3]; more than 10 µg/mL in test [4]; 7.5 µg/mL (≈ 26.9 µM) in test [5]; more than 10 µg/mL in test [6]; 4.4 µg/mL (≈ 15.8 µM) in test [7]. Also, the EC50 in test [1] was determined as 0.43 µg/mL (≈ 1.54 µM).
As for `CC(=O)O[C@H]1C=C2c3cc4c(cc3C(=O)N[C@H]2[C@H](O)[C@@H]1O)OCO4`, in test [2], the GI worked out at 0.26 µg/mL. Further, the GI50 was 0.24 µg/mL (≈ 0.72 µM) in test [3]; 0.19 µg/mL (≈ 0.57 µM) in test [4]; 0.32 µg/mL (≈ 0.96 µM) in test [5]; 0.18 µg/mL (≈ 0.54 µM) in test [6]; 0.26 µg/mL (≈ 0.78 µM) in test [7]. Further, the EC50 in test [1] is less than 0.01 µg/mL.
`CC1(C)O[C@H]2[C@@H]3NCc4cc5c(cc4[C@H]3C[C@H](O)[C@H]2O1)OCO5`: in test [1], the GI50 is more than 10 µg/mL.
For `CC1(C)O[C@@H]2[C@H](O1)[C@@H](O[Si](C)(C)C(C)(C)C)C=C1c3cc4c(cc3C(=O)N[C@H]12)OCO4`, the GI50 in test [1] is more than 10 µg/mL.
Same read-out and setting: in the case of `CC1(C)O[C@H]2[C@@H]3NCc4cc5c(cc4[C@H]3C[C@H](O[Si](C)(C)C(C)(C)C)[C@H]2O1)OCO5` it was more than 10 µg/mL.
The compound `Cl.O[C@@H]1[C@H](O)[C@@H](O)C[C@@H]2c3cc4c(cc3CN[C@@H]12)OCO4` returned a GI in test [2] of 1.4 µg/mL. For the same compound, the GI50 in test [3] was 1.7 µg/mL; in test [4] it was 1.6 µg/mL; in test [5], 0.78 µg/mL; in test [6] it was 1.7 µg/mL; in test [7], 0.71 µg/mL. Also, the EC50 in test [1] is 3.3 µg/mL.
In test [1], `CC1(C)O[C@@H]2[C@H](O1)[C@@H](O[Si](C)(C)C(C)(C)C)C=C1c3cc4c(cc3CN[C@H]12)OCO4` showed a GI50 of more than 10 µg/mL.
With `CC(=O)O[C@@H]1[C@H](OC(C)=O)[C@@H](OC(C)=O)C=C2c3cc4c(cc3C(=O)N[C@H]21)OCO4` [LYCORICIDINE TRIACETATE], in test [2], the GI came out at 0.2 µg/mL. The 50% growth inhibitory concentration (GI50) in test [3] came to 0.59 µg/mL; in test [4] it was 0.15 µg/mL; in test [5] it was 1.2 µg/mL; in test [6] it was 0.18 µg/mL; in test [7], 0.48 µg/mL. The EC50 in test [1] amounted to 0.158 µg/mL.
For the compound `O=C1N[C@@H]2C(=C[C@H](O)[C@@H](O)[C@H]2O)c2cc3c(cc21)OCO3`, the GI in test [2] was found to be 0.12 µg/mL. In addition, the GI50 in test [3] worked out at 0.093 µg/mL (≈ 0.319 µM); in test [4], 0.047 µg/mL (≈ 0.161 µM); in test [5] it was 0.11 µg/mL (≈ 0.378 µM); in test [6] it was 0.15 µg/mL (≈ 0.515 µM); in test [7] it was 0.062 µg/mL (≈ 0.213 µM). In addition, in test [1], the EC50 was less than 0.01 µg/mL.
As for `CC1(C)O[C@@H]2[C@H](O1)[C@@H](O)C=C1c3cc4c(cc3C(=O)N[C@H]12)OCO4`, the GI50 in test [1] was more than 10 µg/mL.

For orientation: GI50 means the concentration at which growth is held to half of that of the control. A higher GI50 goes with less potent growth inhibition.
